US20220274947A1, “NOVEL HETEROARYL-TRIAZOLE COMPOUNDS AS PESTICIDES” (Bayer Aktiengesellschaft, priority 2019, published 2022)

Legend:
Format in all cases: in vivo
[1] = tested on: Rhipicephalus microplus; assay: Rhipicephalus (Boophilus) microplus injection test (BOOPMI Inj); conditions: 168 h, injection into adult engorged female ticks, egg deposition after 7 days, read-out: activity (efficacy: 100% means all eggs are infertile); for pest or weed control at 0.004 mg: application rate 4 μg/tick; for pest or weed control at 0.02 mg: application rate 20 μg/tick
Method in brief: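 Five engorged adult female R. microplus ticks injected into the abdomen with 1 μL of compound diluted in DMSO, then kept in a climate chamber. Fertile egg deposition checked after 7 days; eggs without visible fertility held until hatching at about 42 days. Efficacy: 100% = all eggs infertile, 0% = all fertile.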

[2] = tested on: Rhipicephalus sanguineus; assay: Rhipicephalus sanguineus in-vitro contact test, adult brown dog ticks (RHIPSA Cont); conditions: 48 h, after 48 hours, read-out: activity (efficacy: 100% means all ticks are dead or moribund); for pest or weed control at 5 µg/cm2, 500 g/ha: application rate 5 μg/cm^2 (=500 g/ha); for pest or weed control at 1 µg/cm2, 100 g/ha: application rate 1 μg/cm^2 (=100 g/ha)
Method in brief: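 Compound in acetone was coated onto the inner walls of glass tubes and dried by rotation before adult brown dog ticks were exposed. Efficacy was scored at 48 h. Ticks unable to climb away from a 45–50 °C heating plate within 5 min counted as dead or moribund.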

[3] = tested on: Meloidogyne incognita; assay: Meloidogyne incognita test; conditions: application rate 20 ppm, salad seedlings, after 14 days
Description: Meloidogyne incognita—Test Solvent: 125.0 parts by weight of acetone
To produce a suitable preparation of active compound, 1 part by weight of active compound is mixed with the stated amount of solvent, and the concentrate is diluted with water to the desired concentration.
Vessels are filled with sand, a solution of the active ingredient, a suspension containing eggs and larvae of the southern root-knot nematode (Meloidogyne incognita) and salad seeds. The salad seeds germinate and the seedlings grow. Galls develop in the roots.
After 14 days the nematicidal activity is determined based on the percentage of gall formation. 100% means no galls were found and 0% means the number of galls found on the roots of the treated plants was equal to that in untreated control plants.

[4] = tested on: Rhipicephalus microplus; assay: Rhipicephalus (Boophilus) microplus in-vitro contact test, larval cattle tick, strain Parkhurst (BOOPMI Cont); conditions: application rate 5 μg/cm^2 (=500 g/ha), tick larvae, after 48 hours, read-out: activity (efficacy: 100% means all larvae are dead or moribund)
Method in brief: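 Acetone solutions dried onto glass tube walls (900 ppm giving 5 μg/cm^2); 20-50 pyrethroid-resistant Parkhurst larvae added per tube and held 48 h at 27° C., 85% relative humidity. Efficacy scored by negative geotaxis as % dead or moribund larvae.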

[5] = tested on: Ctenocephalides felis; assay: Ctenocephalides felis in-vitro contact test, adult cat flea (CTECFE Cont); conditions: application rate 5 μg/cm^2 (=500 g/ha), adult cat fleas, after 48 hours, read-out: activity (efficacy: 100% means all fleas are dead or moribund)
Method in brief: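 Acetone solutions coated on glass tube inner walls (900 ppm giving 5 μg/cm^2), then 5-10 adult fleas added and held 48 h at room temperature. Fleas unable to escape a 45-50° C. heating plate within 5 min scored dead or moribund; efficacy = % dead/moribund.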

[6] = tested on: Ctenocephalides felis; assay: Ctenocephalides felis oral test (CTECFE Oral); conditions: 48 h, read-out: activity (mortality)
Method in brief: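 About 20 unfed adult cat fleas fed through parafilm on cattle blood containing compound (DMSO concentrate diluted in blood to the desired concentration). Blood held at 37 °C, fleas at room temperature. Mortality (%) scored after 2 days.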

[7] = tested on: Myzus persicae; assay: Myzus persicae spray test; conditions: in Brassica rapa, foliar, 120 h, read-out: activity (mortality), application rate 100 g/ha, spray, Chinese cabbage leaf disks, after 5 days
Method in brief: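 Compound in acetone/DMF solvent diluted in water with 1000 ppm alkylarylpolyglycol ether emulsifier, sprayed onto Chinese cabbage leaf disks infested with all instars of Myzus persicae. Mortality (%) scored after 5 days.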

[8] = tested on: Nilaparvata lugens; assay: Nilaparvata lugens spray test; conditions: 96 h, rice plants, after 4 days; for mortality at 100 g/ha: application rate 100 g/ha
Description: Nilaparvata lugens—Spray Test Solvent: 78.0 parts by weight of acetone • • 1.5 parts by weight of dimethylformamide Emulsifier: alkylarylpolyglycol ether
To produce a suitable preparation of active compound, 1 part by weight of active compound is mixed with the stated amount of solvents and is diluted with water, containing an emulsifier concentration of 1000 ppm, to the desired concentration. Further test concentrations are prepared by dilution with emulsifier containing water.
Rice plants (Oryza sativa) are sprayed with a preparation of the active ingredient of the desired concentration and the plants are infested with the brown planthopper (Nilaparvata lugens).
After 4 days mortality in % is determined. 100% means all planthoppers have been killed and 0% means none of the planthoppers have been killed.

[9] = tested on: Spodoptera frugiperda; assay: Spodoptera frugiperda spray test; conditions: in Zea mays, 168 h, read-out: activity (mortality)
Method in brief: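 Maize leaf sections were sprayed with compound formulated in acetone/DMF and diluted in water containing 1000 ppm emulsifier. Dried leaves were infested with fall armyworm larvae, and percent mortality was scored after 7 days.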

[10] = tested on: Diabrotica balteata; assay: Diabrotica balteata spray test; conditions: 168 h, wheat seeds, larvae, after 7 days, read-out: activity (efficacy: 100% means all seedlings have grown up like in the untreated, uninfected control); for pest or weed control at 32 µg/disc, 100 g/ha: application rate 100 g/ha (=32 μg/well); for pest or weed control at 160 µg/disc, 500 g/ha: application rate 500 g/ha (=160 μg/well)
Method in brief: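 Wheat seedlings, germinated 1 day on agar, were sprayed with compound in acetone/DMF diluted in water containing emulsifier, then infested with 10-20 Diabrotica balteata larvae. After 7 days efficacy in % was scored: 100% means seedlings grew like the untreated, uninfected control; 0% means none grew.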

[11] = tested on: Myzus persicae; assay: Myzus persicae oral test; conditions: 120 h, read-out: activity (mortality)
Method in brief: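 Percent mortality was recorded at day 5, where 0% means no aphids killed. Compound prepared from an acetone concentrate diluted in water and combined with IPL41 medium containing sugar was offered to mixed-stage green peach aphids, which sucked it through a parafilm seal.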

[12] = tested on: Aedes aegypti strain MONHEIM; assay: Aedes aegypti test (AEDSAE surface treatment & contact assay); conditions: exposure 30 minutes, 24 hours after contact, read-out: efficacy (mortality); for mortality at 20 mg/m2: surface concentration 20 mg/m^2, glazed tile
Method in brief: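 Compound dissolved in acetone (2 mg/ml) with 2000 ppm rapeseed oil methyl ester, pipetted onto glazed tile and dried. Adult mosquitoes exposed on the surface for 30 min; percent mortality scored 24 h after contact.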

[13] = tested on: Musca domestica strain WHO—N; assay: Musca domestica test (MUSCDO surface treatment & contact assay); conditions: surface concentration 20 mg/m^2, glazed tile, exposure 30 minutes, 24 hours after contact, read-out: efficacy (mortality)
Method in brief: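 Compound dissolved in acetone (2 mg/ml) with 2000 ppm rapeseed oil methyl ester and pipetted onto glazed tile; after acetone evaporation, adult flies exposed to dried surface for 30 minutes. Mortality (%) scored 24 hours after contact.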

[14] = tested on: Nezara viridula; assay: Nezara viridula spray test; conditions: in Hordeum vulgare, 96 h, application rate 500 g/ha, barley plants, larvae, after 4 days
Method in brief: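 Barley plants infested with N. viridula larvae were sprayed with compound in acetone/DMF diluted with water containing 1000 ppm alkylarylpolyglycol ether emulsifier. Mortality (%) was scored after 4 days; 100% means all bugs killed, 0% none.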

Row | Compound | pest or weed control at 0.004 mg [1] [%] | pest or weed control at 0.02 mg [1] [%] | pest or weed control at 5 µg/cm2, 500 g/ha [2] [%] | nematicidal activity (100% means no galls were found) [3] [%] | pest or weed control at 5 µg/cm2 [4] [%] | pest or weed control at 5 µg/cm2 [5] [%] | mortality at 100 ppm [6] [%] | pest or weed control at 1 µg/cm2, 100 g/ha [2] [%] | mortality at 100 g/ha [7] [%] | mortality at 100 g/ha [8] [%] | mortality at 100 g/ha [9] [%] | pest or weed control at 32 µg/disc, 100 g/ha [10] [%] | pest or weed control at 160 µg/disc, 500 g/ha [10] [%] | mortality at 500 g/ha [9] [%] | mortality at 4 ppm [11] [%] | mortality at 4 mg/m2 ([12]; surface concentration 4 mg/m^2, glazed tile) [%] | mortality at 20 mg/m2 [12] [%] | mortality at 20 mg/m2 [13] [%] | mortality at 500 g/ha [14] [%] | mortality at 500 g/ha ([8]; application rate 500 g/ha) [%]
1 | CC(C)c1nc([C@H](C)NC(=O)c2cccc(Br)n2)n(-c2ccc(C#N)cn2)n1 [I-23] | 80 | 100 | 80 | 90 |  |  |  |  |  |  |  |  |  |  |  |  |  |  |  | 
2 | Cc1nc([C@H](C)NC(=O)c2cc(Cl)cc(C(F)(F)F)c2)n(-c2cnc(C#N)cn2)n1 [II-104] | 100 |  | 100 |  | 100 | 100 | 100 | 100 | 100 | 90 | 100 |  |  |  |  |  |  |  |  | 
3 | CCOc1nc([C@H](C)NC(=O)c2cc(C(F)(F)F)cc(C(F)(F)F)c2)n(-c2ccc(C#N)cn2)n1 [I-13] | 100 | 100 |  | 90 | 100 |  | 100 |  |  |  | 100 | 100 | 100 | 100 |  |  |  |  |  | 
4 | C[C@H](NC(=O)c1cc(Cl)cc(OC(F)(F)F)c1)c1ncnn1-c1cc(NC(=O)C2CC2)ccn1 [II-25] | 100 | 100 | 80 | 90 | 100 |  |  |  |  |  | 100 |  | 80 | 100 | 100 | 80 to 100 | 80 to 100 | 80 to 100 |  | 
5 | CC(C)c1nc([C@H](C)NC(=O)c2cc(Br)cc(OC(F)(F)F)c2)n(-c2ccc(C#N)cn2)n1 [I-26] | 100 | 100 | 100 |  | 100 |  |  | 80 |  | 90 | 100 | 100 |  |  |  |  | 80 to 100 |  |  | 
6 | C[C@H](NC(=O)c1cc(C(F)(F)F)cc(C(F)(F)F)c1)c1ncnn1-c1ccc(S(C)(=O)=O)cn1 [II-44] | 100 | 100 | 100 |  | 100 |  |  | 100 |  |  | 100 | 100 | 100 | 100 | 100 |  |  |  | 100 | 90
